# Results from ChEMBL document CHEMBL5647694, “Novel orally bioavailable EZH1/2 dual inhibitors with greater antitumor efficacy than an EZH2 selective inhibitor” (Cancer Sci, 2017).
# Assays:
# [1] = Toxicity in Crl:CD Sprague-Dawley rat assessed as reticulocyte percentile in blood at 100 mg/kg, po administered daily for 14 days (reference value: 4.68+/-0.802%); type: organism-based; details: in vivo, 336 h, time 14 day
# [2] = Toxicity in Crl:CD Sprague-Dawley rat assessed as red blood cell count in blood at 100 mg/kg, po administered daily for 14 days (reference value: 6.71+/-0.386 10^6/uL); type: organism-based; details: in vivo, 336 h, time 14 day
# [3] = Toxicity in Crl:CD Sprague-Dawley rat assessed as abnormal clinical signs at 100 mg/kg, po administered daily for 14 days; type: organism-based; details: in vivo, 336 h, time 14 day
# [4] = Toxicity in Crl:CD Sprague-Dawley rat assessed as chloride level in blood at 100 mg/kg, po administered daily for 14 days (reference value: 104 +/-1.5 mEq/L); type: organism-based; details: in vivo, 336 h, time 14 day
# [5] = Toxicity in Crl:CD Sprague-Dawley rat assessed as hypertrophy of zona fasciculata/reticularis cells in adrenal at 100 mg/kg, po administered daily for 14 days by hematoxylin and eosin staining based analysis; type: organism-based; details: in vivo, 336 h, time 14 day
# [6] = target: Tyrosine-protein kinase Tec (Homo sapiens) (UniProt P42680); assay: Inhibition of N-terminal GST-tagged human TEC catalytic domain (359 to 631 residues) expressed in baculovirus-infected Sf21 cells using Srctide as substrate at 1 uM in presence of ATP by Mobility shift assay
# Tyrosine-protein kinase Tec (Homo sapiens), sequence (P42680 whole entry, the tested form may be a part): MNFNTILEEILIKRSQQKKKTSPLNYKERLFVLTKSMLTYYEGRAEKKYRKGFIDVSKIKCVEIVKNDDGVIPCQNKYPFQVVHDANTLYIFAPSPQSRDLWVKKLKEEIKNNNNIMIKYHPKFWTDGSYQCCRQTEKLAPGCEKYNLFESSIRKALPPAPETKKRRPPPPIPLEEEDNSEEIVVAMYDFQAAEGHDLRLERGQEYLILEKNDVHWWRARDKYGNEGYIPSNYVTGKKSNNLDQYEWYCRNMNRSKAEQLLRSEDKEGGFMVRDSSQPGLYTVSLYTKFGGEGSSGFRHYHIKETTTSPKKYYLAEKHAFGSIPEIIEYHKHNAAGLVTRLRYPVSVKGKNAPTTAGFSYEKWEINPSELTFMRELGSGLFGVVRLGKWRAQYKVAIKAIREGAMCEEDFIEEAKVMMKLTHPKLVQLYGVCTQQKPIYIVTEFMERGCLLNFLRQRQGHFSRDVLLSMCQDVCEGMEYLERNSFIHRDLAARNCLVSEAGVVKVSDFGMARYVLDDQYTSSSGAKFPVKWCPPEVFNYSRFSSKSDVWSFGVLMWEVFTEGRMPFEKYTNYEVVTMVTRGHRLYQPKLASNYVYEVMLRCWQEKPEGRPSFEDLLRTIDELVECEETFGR
# [7] = Toxicity in Crl:CD Sprague-Dawley rat assessed as alanine aminotransferase level in blood at 100 mg/kg, po administered daily for 14 days (reference value: 35.5+/-1.91 U/L); type: organism-based; details: in vivo, 336 h, time 14 day
# MOLT-4 = assay: Antitumor activity against human MOLT-4 cells assessed as cell growth inhibition treated for 10 to 15 days; type: functional; details: time 10-15 day
# TCC-SUP = assay: Antitumor activity against human TCC-SUP cells assessed as cell growth inhibition treated for 10 to 15 days; type: functional; details: time 10-15 day
# MDA-MB-231 = assay: Antitumor activity against human MDA-MB-231 cells assessed as cell growth inhibition treated for 10 to 15 days; type: functional; details: time 10-15 day
# AGS = assay: Antitumor activity against human AGS cells assessed as cell growth inhibition treated for 10 to 15 days; type: functional; details: time 10-15 day
# Granta-519 = assay: Antitumor activity against human Granta-519 cells assessed as cell growth inhibition treated for 10 to 15 days; type: functional; details: time 10-15 day
# LoVo = assay: Antitumor activity against human LoVo cells assessed as cell growth inhibition treated for 10 to 15 days; type: functional; details: time 10-15 day
# MKN-45 = assay: Antitumor activity against human MKN-45 cells assessed as cell growth inhibition treated for 10 to 15 days; type: functional; details: time 10-15 day
# U-266 = assay: Antitumor activity against human U266B1 cells assessed as cell growth inhibition treated for 10 to 15 days; type: functional; details: time 10-15 day
# [8] = Antitumor activity against human MJ cells assessed as cell growth inhibition treated for 10 to 15 days; type: functional; details: time 10-15 day
# Rec1 = assay: Antitumor activity against human REC1 cells assessed as cell growth inhibition treated for 10 to 15 days; type: functional; details: time 10-15 day
# KURAMOCHI = assay: Antitumor activity against human KURAMOCHI cells assessed as cell growth inhibition treated for 10 to 15 days; type: functional; details: time 10-15 day
# KCL-22 = assay: Antitumor activity against human KCL-22 cells assessed as cell growth inhibition treated for 10 to 15 days; type: functional; details: time 10-15 day
# Ramos = assay: Antitumor activity against human Ramos cells assessed as cell growth inhibition treated for 10 to 15 days; type: functional; details: time 10-15 day
# [9] = target: Eukaryotic translation initiation factor 2-alpha kinase 3 (Homo sapiens) (UniProt Q9NZJ5); assay: Inhibition of N-terminal GST-fused human PEK catalytic domain (536 to 1116 residues) expressed in Escherichia coli expression system using SRPKtide as substrate at 1 uM in presence of ATP by Mobility shift assay
# Eukaryotic translation initiation factor 2-alpha kinase 3 (Homo sapiens), sequence (Q9NZJ5 whole entry, the tested form may be a part): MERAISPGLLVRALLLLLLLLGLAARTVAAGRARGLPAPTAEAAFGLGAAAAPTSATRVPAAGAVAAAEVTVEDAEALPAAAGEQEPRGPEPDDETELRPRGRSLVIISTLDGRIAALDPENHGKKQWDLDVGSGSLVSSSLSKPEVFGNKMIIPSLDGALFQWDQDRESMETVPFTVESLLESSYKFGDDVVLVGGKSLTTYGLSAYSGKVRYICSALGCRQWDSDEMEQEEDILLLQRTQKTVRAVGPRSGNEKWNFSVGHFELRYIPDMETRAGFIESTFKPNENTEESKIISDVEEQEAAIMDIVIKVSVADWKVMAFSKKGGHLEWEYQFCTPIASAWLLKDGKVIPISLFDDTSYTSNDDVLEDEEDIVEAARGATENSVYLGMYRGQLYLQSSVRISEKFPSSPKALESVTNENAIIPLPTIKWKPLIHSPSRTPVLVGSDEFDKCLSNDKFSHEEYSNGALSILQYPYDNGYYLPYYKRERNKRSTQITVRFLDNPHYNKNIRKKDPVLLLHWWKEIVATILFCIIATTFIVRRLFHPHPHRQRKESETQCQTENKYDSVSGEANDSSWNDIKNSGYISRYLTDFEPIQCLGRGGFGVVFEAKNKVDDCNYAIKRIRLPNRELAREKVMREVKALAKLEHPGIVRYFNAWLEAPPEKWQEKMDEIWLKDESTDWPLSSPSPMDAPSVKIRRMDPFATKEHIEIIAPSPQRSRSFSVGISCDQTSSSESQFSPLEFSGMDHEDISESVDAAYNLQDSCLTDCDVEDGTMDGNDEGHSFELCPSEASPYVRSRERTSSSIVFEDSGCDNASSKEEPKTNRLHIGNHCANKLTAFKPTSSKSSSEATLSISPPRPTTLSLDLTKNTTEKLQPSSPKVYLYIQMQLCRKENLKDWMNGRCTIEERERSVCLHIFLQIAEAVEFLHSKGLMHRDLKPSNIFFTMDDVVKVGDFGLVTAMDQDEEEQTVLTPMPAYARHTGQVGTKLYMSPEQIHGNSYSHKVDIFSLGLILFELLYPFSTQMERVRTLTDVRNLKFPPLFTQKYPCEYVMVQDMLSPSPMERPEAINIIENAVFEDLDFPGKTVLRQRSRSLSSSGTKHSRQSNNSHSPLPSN
# SNU-398 = assay: Antitumor activity against human SNU-398 cells assessed as cell growth inhibition treated for 10 to 15 days; type: functional; details: time 10-15 day
# NCI-H2081 = assay: Antitumor activity against human NCI-H2081 cells assessed as cell growth inhibition treated for 10 to 15 days; type: functional; details: time 10-15 day
# Hs-578T = assay: Antitumor activity against human Hs-578T cells assessed as cell growth inhibition treated for 10 to 15 days; type: functional; details: time 10-15 day
# LS-411N = assay: Antitumor activity against human LS-411N cells assessed as cell growth inhibition treated for 10 to 15 days; type: functional; details: time 10-15 day
# [10] = Antitumor activity against human MINO cells assessed as cell growth inhibition treated for 10 to 15 days; type: functional; details: time 10-15 day
# [11] = target: MAP kinase-activated protein kinase 2 (Homo sapiens) (UniProt P49137); assay: Inhibition of N-terminal GST-fused full length human MAPKAPK2 (1 to 400 residues) expressed in baculovirus expression system using GS peptide as substrate at 1 uM in presence of ATP by Mobility shift assay
# MAP kinase-activated protein kinase 2 (Homo sapiens), sequence (P49137 whole entry, looked up, the tested form may be a part): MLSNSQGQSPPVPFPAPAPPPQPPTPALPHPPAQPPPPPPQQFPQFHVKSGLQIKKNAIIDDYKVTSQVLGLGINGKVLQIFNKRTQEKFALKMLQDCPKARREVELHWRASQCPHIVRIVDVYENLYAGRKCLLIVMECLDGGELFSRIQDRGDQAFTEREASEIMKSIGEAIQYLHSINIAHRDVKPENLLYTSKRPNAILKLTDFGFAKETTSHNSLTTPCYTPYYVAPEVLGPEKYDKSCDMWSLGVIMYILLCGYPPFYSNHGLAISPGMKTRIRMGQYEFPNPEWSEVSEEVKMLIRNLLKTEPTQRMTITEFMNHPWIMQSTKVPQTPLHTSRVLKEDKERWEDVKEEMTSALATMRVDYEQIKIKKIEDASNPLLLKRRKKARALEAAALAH
# [12] = target: Histone-lysine N-methyltransferase NSD2 (Homo sapiens, UniProt O96028, E1099K); assay: Inhibition of human NSD2 E1099K mutant using Nucleosomes and [3H]SAM as substrate incubated for 30 mins to 1 hr by HotSpot kinase assay
# Histone-lysine N-methyltransferase NSD2, sequence (O96028 whole entry E1099K): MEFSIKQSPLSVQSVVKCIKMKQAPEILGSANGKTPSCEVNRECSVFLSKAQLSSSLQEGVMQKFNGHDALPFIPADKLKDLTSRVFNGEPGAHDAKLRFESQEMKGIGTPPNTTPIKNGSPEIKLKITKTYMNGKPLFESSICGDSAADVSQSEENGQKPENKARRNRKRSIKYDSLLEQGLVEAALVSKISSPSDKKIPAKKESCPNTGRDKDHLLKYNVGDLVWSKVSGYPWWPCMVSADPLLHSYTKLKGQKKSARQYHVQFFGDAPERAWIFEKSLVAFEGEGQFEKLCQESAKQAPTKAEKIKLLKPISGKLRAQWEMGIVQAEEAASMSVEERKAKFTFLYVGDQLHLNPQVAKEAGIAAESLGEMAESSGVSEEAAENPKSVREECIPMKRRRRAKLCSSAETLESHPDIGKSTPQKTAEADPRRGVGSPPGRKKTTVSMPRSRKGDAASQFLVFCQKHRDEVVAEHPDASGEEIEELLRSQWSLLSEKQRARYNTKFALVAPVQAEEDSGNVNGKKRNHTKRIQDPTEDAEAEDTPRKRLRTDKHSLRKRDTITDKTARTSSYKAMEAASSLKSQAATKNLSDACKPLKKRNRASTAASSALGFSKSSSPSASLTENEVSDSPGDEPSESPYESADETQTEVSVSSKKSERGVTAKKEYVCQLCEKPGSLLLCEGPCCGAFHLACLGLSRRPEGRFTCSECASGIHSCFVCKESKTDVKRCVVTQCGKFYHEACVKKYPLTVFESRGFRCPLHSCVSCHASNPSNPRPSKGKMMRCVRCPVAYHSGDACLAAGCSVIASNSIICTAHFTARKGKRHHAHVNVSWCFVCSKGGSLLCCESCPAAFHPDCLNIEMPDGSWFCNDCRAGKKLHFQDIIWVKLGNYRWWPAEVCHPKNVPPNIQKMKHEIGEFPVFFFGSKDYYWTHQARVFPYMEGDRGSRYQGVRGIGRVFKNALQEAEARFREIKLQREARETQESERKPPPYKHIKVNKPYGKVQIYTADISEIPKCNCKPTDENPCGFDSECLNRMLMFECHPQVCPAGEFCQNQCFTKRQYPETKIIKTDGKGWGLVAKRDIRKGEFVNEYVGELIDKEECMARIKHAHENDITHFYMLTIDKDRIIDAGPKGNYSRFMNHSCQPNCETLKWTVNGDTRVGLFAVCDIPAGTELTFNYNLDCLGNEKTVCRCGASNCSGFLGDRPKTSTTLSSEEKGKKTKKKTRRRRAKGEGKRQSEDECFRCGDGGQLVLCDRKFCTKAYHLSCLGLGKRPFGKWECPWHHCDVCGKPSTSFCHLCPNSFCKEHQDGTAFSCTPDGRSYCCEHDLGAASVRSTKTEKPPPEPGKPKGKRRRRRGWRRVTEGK
# [13] = target: Protein arginine N-methyltransferase 3 (Homo sapiens, UniProt O60678); assay: Inhibition of human PRMT3 using Histone H4 and [3H]SAM as substrate incubated for 30 mins to 1 hr by HotSpot kinase assay
# Protein arginine N-methyltransferase 3, sequence (O60678 whole entry): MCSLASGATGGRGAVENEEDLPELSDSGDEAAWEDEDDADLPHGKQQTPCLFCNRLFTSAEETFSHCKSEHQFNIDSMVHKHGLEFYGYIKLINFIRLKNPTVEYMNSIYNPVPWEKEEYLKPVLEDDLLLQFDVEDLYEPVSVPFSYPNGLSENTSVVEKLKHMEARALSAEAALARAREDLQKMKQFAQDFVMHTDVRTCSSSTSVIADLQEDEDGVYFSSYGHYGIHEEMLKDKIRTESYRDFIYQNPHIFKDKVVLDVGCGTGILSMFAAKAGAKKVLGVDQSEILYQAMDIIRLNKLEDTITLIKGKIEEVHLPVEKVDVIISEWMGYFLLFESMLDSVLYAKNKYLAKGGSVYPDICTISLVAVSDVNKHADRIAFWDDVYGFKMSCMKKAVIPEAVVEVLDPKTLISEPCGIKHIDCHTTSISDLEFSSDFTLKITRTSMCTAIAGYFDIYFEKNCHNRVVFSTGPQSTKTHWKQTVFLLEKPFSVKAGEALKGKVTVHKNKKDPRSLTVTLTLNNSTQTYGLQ
# A-427 = assay: Antitumor activity against human A-427 cells assessed as cell growth inhibition treated for 10 to 15 days; type: functional; details: time 10-15 day
# Panc1005 = assay: Antitumor activity against human Panc1005 cells assessed as cell growth inhibition treated for 10 to 15 days; type: functional; details: time 10-15 day
# RMG-I = assay: Antitumor activity against human RMG-I cells assessed as cell growth inhibition treated for 10 to 15 days; type: functional; details: time 10-15 day
# LS180 = assay: Antitumor activity against human LS180 cells assessed as cell growth inhibition treated for 10 to 15 days; type: functional; details: time 10-15 day
# SBC-5 = assay: Antitumor activity against human SBC-5 cells assessed as cell growth inhibition treated for 10 to 15 days; type: functional; details: time 10-15 day
# OAW-42 = assay: Antitumor activity against human OAW-42 cells assessed as cell growth inhibition treated for 10 to 15 days; type: functional; details: time 10-15 day
# HCT-15 = assay: Antitumor activity against human HCT-15 cells assessed as cell growth inhibition treated for 10 to 15 days; type: functional; details: time 10-15 day
# ECC10 = assay: Antitumor activity against human ECC10 cells assessed as cell growth inhibition treated for 10 to 15 days; type: functional; details: time 10-15 day
# MDA-MB-134-VI = assay: Antitumor activity against human MDA-MB-134-VI cells assessed as cell growth inhibition treated for 10 to 15 days; type: functional; details: time 10-15 day
# DMS-114 = assay: Antitumor activity against human DMS-114 cells assessed as cell growth inhibition treated for 10 to 15 days; type: functional; details: time 10-15 day
# Raji = assay: Antitumor activity against human Raji cells assessed as cell growth inhibition treated for 10 to 15 days; type: functional; details: time 10-15 day
# RKO = assay: Antitumor activity against human RKO cells assessed as cell growth inhibition treated for 10 to 15 days; type: functional; details: time 10-15 day
# HCC1954 = assay: Antitumor activity against human HCC1954 cells assessed as cell growth inhibition treated for 10 to 15 days; type: functional; details: time 10-15 day
# [14] = Antitumor activity against human PCM6 cells assessed as cell growth inhibition treated for 10 to 15 days; type: functional; details: time 10-15 day
compound,measurement,setting,value
Cc1cc(C)c(CNC(=O)c2cc(Br)c3c(c2C)O[C@@](C)([C@H]2CC[C@H](N(C)C)CC2)O3)c(=O)[nH]1,Activity,[1],4.48%
same,Activity,[2],6.59 10^6 /uL
same,Activity,[3],Non-Toxic
same,Activity,[4],105 mEq/L
same,Activity,[5],Toxic
same,inhibition,[6],-10%
same,Activity,[7],27.5 U/L
Cc1cc(C)c(CNC(=O)c2cc(Cl)c3c(c2C)O[C@@](C)([C@H]2CC[C@H](N(C)C)CC2)O3)c(=O)[nH]1 [VALEMETOSTAT],GI50,MOLT-4,120 nM
same,GI50,TCC-SUP,> 1000 nM
same,GI50,MDA-MB-231,> 1000 nM
same,GI50,AGS,> 1000 nM
same,GI50,Granta-519,> 1000 nM
same,GI50,LoVo,150 nM
same,GI50,MKN-45,> 1000 nM
same,GI50,U-266,6.88 nM
same,GI50,[8],26 nM
same,GI50,Rec1,480 nM
same,GI50,KURAMOCHI,> 1000 nM
same,GI50,KCL-22,138 nM
same,GI50,Ramos,> 1000 nM
same,inhibition,[9],-9.8%
same,GI50,SNU-398,2.07 nM
same,GI50,NCI-H2081,982 nM
same,GI50,Hs-578T,> 1000 nM
same,GI50,LS-411N,> 1000 nM
same,GI50,[10],20.7 nM
same,inhibition,[11],6.7%
same,IC50,[12],100000 nM
same,IC50,[13],100000 nM
same,GI50,A-427,> 1000 nM
same,GI50,Panc1005,> 1000 nM
same,GI50,RMG-I,> 1000 nM
same,GI50,LS180,95.5 nM
same,GI50,SBC-5,22 nM
same,GI50,OAW-42,> 1000 nM
same,GI50,HCT-15,> 1000 nM
same,GI50,ECC10,84.5 nM
same,GI50,MDA-MB-134-VI,> 1000 nM
same,GI50,DMS-114,5.5 nM
same,GI50,Raji,11.2 nM
same,GI50,RKO,> 1000 nM
same,GI50,HCC1954,> 1000 nM
same,GI50,[14],32.5 nM
